Tests used:
Format in all cases: ADME, organism-based
[1] = Drug level in rat after 6 hrs; conditions: in vivo, read-out: Drug uptake
[2] = AUC (0 to 6 hrs) in rat; parameters: time < 6 hr; conditions: plasma
[3] = Cmax in rat after 4 hrs; conditions: in vivo

CC1(C)CCC(N2CCC3(CC2)C(=O)NCN3c2ccccc2)c2cc(Cl)c(Cl)cc21 (stereo not drawn)
concentration at 6 h [1]: 467 nM | AUC(0-t) at 6 h [2]: 2.11 µM·h | Cmax [3]: 518 nM
